The values that follow come from BigSolDB 2.1.

For this data set the following is noted: in ethanol.

A word on the solubility (mole fraction): it is the moles of solute divided by all moles in the saturated solution. Turning to `COc1cc(OC)cc(C(=O)O)c1`, the solubility (mole fraction) amounted to 0.00493 (298.15 K); 0.00607 (303.15 K); 0.00746 (308.15 K); 0.00934 (313.15 K); 0.0116 (318.15 K).

Consider `O=C(O)c1ccc(Cl)cc1Cl`, for which the solubility (mole fraction) came out at 0.0581 (298.15 K); 0.0693 (303.15 K); 0.0817 (308.15 K); 0.0953 (313.15 K); 0.118 (318.15 K).

For `CC(=O)Oc1ccc(C(=O)O)cc1`, the solubility (mole fraction) was determined as 0.0249 (298.15 K); 0.0302 (303.15 K); 0.0358 (308.15 K); 0.0432 (313.15 K); 0.0522 (318.15 K).

`Nc1cc(N)cc(C(=O)O)c1` showed a solubility (mole fraction) (298.15 K) of 0.00334; a solubility (mole fraction) (303.15 K) of 0.00342; a solubility (mole fraction) (308.15 K) of 0.004; a solubility (mole fraction) (313.15 K) of 0.00441; a solubility (mole fraction) (318.15 K) of 0.00519.

Take `N#Cc1ccc(C(=O)O)cc1`: the solubility (mole fraction) is 0.0214 (298.15 K); 0.0266 (303.15 K); 0.0331 (308.15 K); 0.0353 (313.15 K); 0.044 (318.15 K).
